# According to patent US20230085307A1, “PYRIDAZINONE COMPOUND AND HERBICIDE” (NISSAN CHEMICAL CORPORATION, priority 2019, published 2023):
# Columns and labels:
# [1] = tested on: barnyard grass; experiment: Test Example 3: herbicidal effect by foliage application, Wagner pot (Table 18, symbol H); assay type: in vivo, barnyard grass (Echinochloa crus-galli); settings: 320 g/ha
# In short: (§1)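 Plants were sown in alluvial soil held under 0.1–0.5 cm standing water and grown 14 days in a greenhouse at 25–30 °C. An emulsifiable formulation, water-diluted to the set dose, was then sprayed onto the foliage, and effects were scored three weeks later using previously defined criteria.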
# [2] = tested on: Chinese sprangletop; experiment: Test Example 3: herbicidal effect by foliage application, Wagner pot (Table 18, symbol D); assay type: in vivo, chinese sprangletop (Leptochloa chinensis); settings: 320 g/ha
# In short: as §1
# [3] = tested on: rice flat sedge; experiment: Test Example 3: herbicidal effect by foliage application, Wagner pot (Table 18, symbol E); assay type: in vivo, rice flat sedge (Cyperus iria); settings: 320 g/ha
# In short: as §1
# [4] = tested on: southern crabgrass; experiment: Test Example 4: herbicidal effect by soil treatment (Table 19, symbol F); assay type: in vivo, southern crabgrass (Digitaria ciliaris); settings: amount of applied herbicide 320 g/ha
# In short: (§2)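 Herbicidal effect was rated 3 weeks after treatment, using the scoring criteria of an earlier test. The compound, formulated as an emulsion and diluted in water to a set herbicide amount, had been sprayed uniformly on soil over freshly sown seeds. Growth took place in a greenhouse at 25° C. to 30° C.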
# [5] = tested on: green foxtail; experiment: Test Example 4: herbicidal effect by soil treatment (Table 19, symbol G); assay type: in vivo, green foxtail (Setaria viridis); settings: amount of applied herbicide 320 g/ha
# In short: as §2
# [6] = tested on: barnyard grass; experiment: Test Example 4: herbicidal effect by soil treatment (Table 19, symbol H); assay type: in vivo, barnyard grass (Echinochloa crus-galli); settings: amount of applied herbicide 320 g/ha
# In short: as §2
# [7] = tested on: wild oat; experiment: Test Example 4: herbicidal effect by soil treatment (Table 19, symbol I); assay type: in vivo, wild oat (Avena fatua); settings: amount of applied herbicide 320 g/ha
# In short: as §2
# [8] = tested on: blackgrass; experiment: Test Example 4: herbicidal effect by soil treatment (Table 19, symbol J); assay type: in vivo, blackgrass (Alopecurus myosuroides); settings: amount of applied herbicide 320 g/ha
# In short: as §2
# [9] = tested on: Italian ryegrass; experiment: Test Example 4: herbicidal effect by soil treatment (Table 19, symbol K); assay type: in vivo, Italian ryegrass (Lolium multiflorum); settings: amount of applied herbicide 320 g/ha
# In short: as §2
# [10] = tested on: windgrass; experiment: Test Example 4: herbicidal effect by soil treatment (Table 19, symbol L); assay type: in vivo, windgrass (Apera spica-venti); settings: amount of applied herbicide 320 g/ha
# In short: as §2
# [11] = tested on: velvetleaf; experiment: Test Example 4: herbicidal effect by soil treatment (Table 19, symbol M); assay type: in vivo, velvetleaf (Abutilon theophrasti); settings: amount of applied herbicide 320 g/ha
# In short: as §2
# [12] = tested on: redroot pigweed; experiment: Test Example 4: herbicidal effect by soil treatment (Table 19, symbol N); assay type: in vivo, redroot pigweed (Amaranthus retroflexus); settings: amount of applied herbicide 320 g/ha
# In short: as §2
# [13] = tested on: lambsquarters; experiment: Test Example 4: herbicidal effect by soil treatment (Table 19, symbol O); assay type: in vivo, lambsquarters (Chenopodium album); settings: amount of applied herbicide 320 g/ha
# In short: as §2
# [14] = tested on: chickweed; experiment: Test Example 4: herbicidal effect by soil treatment (Table 19, symbol P); assay type: in vivo, common chickweed (Stellaria media); settings: amount of applied herbicide 320 g/ha
# In short: as §2
# [15] = tested on: persian speedwell; experiment: Test Example 4: herbicidal effect by soil treatment (Table 19, symbol R); assay type: in vivo, Persian speedwell (Veronica persica); settings: amount of applied herbicide 320 g/ha
# In short: as §2
# [16] = tested on: southern crabgrass; experiment: Test Example 5: herbicidal effect by foliage application, plastic box (Table 20, symbol F); assay type: in vivo, southern crabgrass (Digitaria ciliaris); settings: amount of applied herbicide 320 g/ha; foliage application after 14-day growth; evaluated three weeks after application
# In short: (§3)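 Foliar spray test: emulsion formulation diluted in water to a set application rate, sprayed onto 14-day-old plants raised in diluvial soil at 25° C to 30° C under glass. Both herbicidal effect and crop effect rated visually three weeks later.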
# [17] = tested on: green foxtail; experiment: Test Example 5: herbicidal effect by foliage application, plastic box (Table 20, symbol G); assay type: in vivo, green foxtail (Setaria viridis); settings: amount of applied herbicide 320 g/ha; foliage application after 14-day growth; evaluated three weeks after application
# In short: as §3
# [18] = tested on: barnyard grass; experiment: Test Example 5: herbicidal effect by foliage application, plastic box (Table 20, symbol H); assay type: in vivo, barnyard grass (Echinochloa crus-galli); settings: amount of applied herbicide 320 g/ha; foliage application after 14-day growth; evaluated three weeks after application
# In short: as §3
# [19] = tested on: wild oat; experiment: Test Example 5: herbicidal effect by foliage application, plastic box (Table 20, symbol I); assay type: in vivo, wild oat (Avena fatua); settings: amount of applied herbicide 320 g/ha; foliage application after 14-day growth; evaluated three weeks after application
# In short: as §3
# [20] = tested on: blackgrass; experiment: Test Example 5: herbicidal effect by foliage application, plastic box (Table 20, symbol J); assay type: in vivo, blackgrass (Alopecurus myosuroides); settings: amount of applied herbicide 320 g/ha; foliage application after 14-day growth; evaluated three weeks after application
# In short: as §3
# [21] = tested on: Italian ryegrass; experiment: Test Example 5: herbicidal effect by foliage application, plastic box (Table 20, symbol K); assay type: in vivo, Italian ryegrass (Lolium multiflorum); settings: amount of applied herbicide 320 g/ha; foliage application after 14-day growth; evaluated three weeks after application
# In short: as §3
# [22] = tested on: windgrass; experiment: Test Example 5: herbicidal effect by foliage application, plastic box (Table 20, symbol L); assay type: in vivo, windgrass (Apera spica-venti); settings: amount of applied herbicide 320 g/ha; foliage application after 14-day growth; evaluated three weeks after application
# In short: as §3
# [23] = tested on: velvetleaf; experiment: Test Example 5: herbicidal effect by foliage application, plastic box (Table 20, symbol M); assay type: in vivo, velvetleaf (Abutilon theophrasti); settings: amount of applied herbicide 320 g/ha; foliage application after 14-day growth; evaluated three weeks after application
# In short: as §3
# [24] = tested on: redroot pigweed; experiment: Test Example 5: herbicidal effect by foliage application, plastic box (Table 20, symbol N); assay type: in vivo, redroot pigweed (Amaranthus retroflexus); settings: amount of applied herbicide 320 g/ha; foliage application after 14-day growth; evaluated three weeks after application
# In short: as §3
# [25] = tested on: lambsquarters; experiment: Test Example 5: herbicidal effect by foliage application, plastic box (Table 20, symbol O); assay type: in vivo, lambsquarters (Chenopodium album); settings: amount of applied herbicide 320 g/ha; foliage application after 14-day growth; evaluated three weeks after application
# In short: as §3
# [26] = tested on: chickweed; experiment: Test Example 5: herbicidal effect by foliage application, plastic box (Table 20, symbol P); assay type: in vivo, common chickweed (Stellaria media); settings: amount of applied herbicide 320 g/ha; foliage application after 14-day growth; evaluated three weeks after application
# In short: as §3
# [27] = tested on: persian speedwell; experiment: Test Example 5: herbicidal effect by foliage application, plastic box (Table 20, symbol R); assay type: in vivo, Persian speedwell (Veronica persica); settings: amount of applied herbicide 320 g/ha; foliage application after 14-day growth; evaluated three weeks after application
# In short: as §3
Compound,herbicidal effect on barnyard grass (H) [1],herbicidal effect on Chinese sprangletop (D) [2],herbicidal effect on rice flat sedge (E) [3],"F: southern crabgrass, herbicidal effect grade [4]","G: green foxtail, herbicidal effect grade [5]","H: barnyard grass, herbicidal effect grade [6]","I: wild oat, herbicidal effect grade [7]","J: blackgrass, herbicidal effect grade [8]","K: Italian ryegrass, herbicidal effect grade [9]","L: windgrass, herbicidal effect grade [10]","M: velvetleaf, herbicidal effect grade [11]","N: redroot pigweed, herbicidal effect grade [12]","O: lambsquarters, herbicidal effect grade [13]","P: chickweed, herbicidal effect grade [14]","R: persian speedwell, herbicidal effect grade [15]","Herbicidal effect by foliage application, F: southern crabgrass [16]","Herbicidal effect by foliage application, G: green foxtail [17]","Herbicidal effect by foliage application, H: barnyard grass [18]","Herbicidal effect by foliage application, I: wild oat [19]","Herbicidal effect by foliage application, J: blackgrass [20]",also measured
Cc1nn(C)c(=O)c(-c2c(-c3ccc(C#N)cc3)sc3cc(F)c(F)cc23)c1O [5-025],3 (Herbicidal rate of 40% or more and less than 70%),4 (Herbicidal rate of 70% or more and less than 90%),4 (Herbicidal rate of 70% or more and less than 90%),1 (Herbicidal rate of 5% or more and less than 20%),4 (Herbicidal rate of 70% or more and less than 90%),3 (Herbicidal rate of 40% or more and less than 70%),1 (Herbicidal rate of 5% or more and less than 20%),0 (Herbicidal rate of 5% or less (almost no effect)),1 (Herbicidal rate of 5% or more and less than 20%),0 (Herbicidal rate of 5% or less (almost no effect)),3 (Herbicidal rate of 40% or more and less than 70%),5 (Herbicidal rate of 90% or more (almost completely withered)),5 (Herbicidal rate of 90% or more (almost completely withered)),3 (Herbicidal rate of 40% or more and less than 70%),4 (Herbicidal rate of 70% or more and less than 90%),3 (Herbicidal rate of 40% or more and less than 70%),4 (Herbicidal rate of 70% or more and less than 90%),1 (Herbicidal rate of 5% or more and less than 20%),3 (Herbicidal rate of 40% or more and less than 70%),1 (Herbicidal rate of 5% or more and less than 20%),"Herbicidal effect by foliage application, K: Italian ryegrass [21]: 1 (Herbicidal rate of 5% or more and less than 20%); Herbicidal effect by foliage application, L: windgrass [22]: 5 (Herbicidal rate of 90% or more (almost completely withered)); Herbicidal effect by foliage application, M: velvetleaf [23]: 5 (Herbicidal rate of 90% or more (almost completely withered)); Herbicidal effect by foliage application, N: redroot pigweed [24]: 5 (Herbicidal rate of 90% or more (almost completely withered)); Herbicidal effect by foliage application, O: lambsquarters [25]: 5 (Herbicidal rate of 90% or more (almost completely withered)); Herbicidal effect by foliage application, P: chickweed [26]: 5 (Herbicidal rate of 90% or more (almost completely withered)); Herbicidal effect by foliage application, R: persian speedwell [27]: 5 (Herbicidal rate of 90% or more (almost completely withered))"
Cc1nn(C)c(=O)c(-c2c(-c3ccc4c(c3)OCO4)sc3cc(F)c(F)cc23)c1O [5-035],4 (Herbicidal rate of 70% or more and less than 90%),3 (Herbicidal rate of 40% or more and less than 70%),3 (Herbicidal rate of 40% or more and less than 70%),1 (Herbicidal rate of 5% or more and less than 20%),2 (Herbicidal rate of 20% or more and less than 40%),3 (Herbicidal rate of 40% or more and less than 70%),0 (Herbicidal rate of 5% or less (almost no effect)),0 (Herbicidal rate of 5% or less (almost no effect)),0 (Herbicidal rate of 5% or less (almost no effect)),0 (Herbicidal rate of 5% or less (almost no effect)),0 (Herbicidal rate of 5% or less (almost no effect)),1 (Herbicidal rate of 5% or more and less than 20%),3 (Herbicidal rate of 40% or more and less than 70%),1 (Herbicidal rate of 5% or more and less than 20%),5 (Herbicidal rate of 90% or more (almost completely withered)),1 (Herbicidal rate of 5% or more and less than 20%),0 (Herbicidal rate of 5% or less (almost no effect)),2 (Herbicidal rate of 20% or more and less than 40%),0 (Herbicidal rate of 5% or less (almost no effect)),0 (Herbicidal rate of 5% or less (almost no effect)),"Herbicidal effect by foliage application, K: Italian ryegrass [21]: 0 (Herbicidal rate of 5% or less (almost no effect)); Herbicidal effect by foliage application, L: windgrass [22]: 5 (Herbicidal rate of 90% or more (almost completely withered)); Herbicidal effect by foliage application, M: velvetleaf [23]: 5 (Herbicidal rate of 90% or more (almost completely withered)); Herbicidal effect by foliage application, N: redroot pigweed [24]: 5 (Herbicidal rate of 90% or more (almost completely withered)); Herbicidal effect by foliage application, O: lambsquarters [25]: 5 (Herbicidal rate of 90% or more (almost completely withered)); Herbicidal effect by foliage application, P: chickweed [26]: 5 (Herbicidal rate of 90% or more (almost completely withered)); Herbicidal effect by foliage application, R: persian speedwell [27]: 5 (Herbicidal rate of 90% or more (almost completely withered))"
